Source: patent US12617752B2, “Rapidly metabolized lipid compound” (Beijing Jitai Life Sciences Ltd, priority 2023, dated 2026)

Legend:
[1] = tested on: HEK293T cells; experiment: Cytotoxicity testing with CCK-8 reagent; assay type: cell-based, human; conditions: CCK-8, 24 h, relative to PBS negative control
Description: (§1) The delivery effect and safety of nanoparticles encapsulated with luciferase mRNA were evaluated at the cellular level in vitro. The cells used in the assay were human embryonic kidney cells 293 (HEK293T cells) cultured in DMEM (Dulbecco's Modified Eagle Medium) (purchased from Thermo Fisher) containing 10% fetal bovine serum and 5% penicillin-streptomycin double antibiotics at a indoor temperature of 37° C. and a CO2 concentration of 5%. The cells were uniformly dispersed and spread in 48-well plates, and incubated in the incubator for 24 h. Then a solution of the lipid nanoparticles encapsulated with luciferase mRNA were added. After 24 h, the cells were lysed, and the intracellular expression intensity and relative light units (RLU) of luciferase in each type of lipid nanoparticles were measured with a luciferase detection reagent (purchased from Promega). The higher the intensity of expression, the higher the delivery efficiency of the lipid material at the cellular level. […] The absorbance values were read on a multifunctional microplate reader at an absorbance band of 450 nm. The ratio of the absorbance value of the nanoparticle-treated cells to that of the negative control was used as a characterization parameter for cell viability.

[2] = Particle size and PDI of lipid nanoparticles by dynamic light scattering; assay type: physicochemical; conditions: lipid nanoparticles with luciferase mRNA; ionizable lipid/cholesterol/DSPC/DMG-PEG2000 50/38.5/10/1.5 mol%
How it was run: (§2)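 LNPs of ionizable lipid/cholesterol/phospholipid/PEG-lipid (50/38.5/10/1.5 mol%, N/P 6) were formed by microfluidic mixing with mRNA in pH 4.5 acetate, then buffer-exchanged by ultrafiltration. Size and PDI were measured by DLS. Encapsulation came from RiboGreen fluorescence (485/528 nm) in TE pH 7.5, with and without 0.5% Triton at 37 °C for 30 min.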

[3] = tested on: C57BL/6 mice; experiment: In vivo delivery of luciferase mRNA lipid nanoparticles in mice (bioluminescence imaging); conditions: intravenous, single dose 0.5 mg/kg luciferase mRNA
How it was run: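 Female C57BL/6 mice, 6-8 weeks old, received luciferase mRNA lipid nanoparticles as a single intravenous dose of 0.5 mg/kg mRNA. At 6 h, D-luciferin given intraperitoneally; 10 min later, mice were imaged under isoflurane anaesthesia. Values are group mean fluorescence intensity and total photon count.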

[4] = tested on: HEK293T cells; experiment: In vitro delivery efficiency of luciferase mRNA nanoparticles (luciferase expression); assay type: cell-based, human; conditions: 24 h
Description: as §1

[5] = Encapsulation efficiency of lipid nanoparticles (Quant-it RiboGreen RNA Assay); assay type: physicochemical; conditions: lipid nanoparticles with luciferase mRNA
How it was run: as §2

[6] = Clearance rate of ionizable lipids in vivo (liver content by LC-MS/MS); conditions: C57 WT female mice, tail vein, 100 μL unloaded LNP (0.1 mg/mL)
Description: The 6-8 weeks old C57 WT female mice (n=3) were injected by tail vein administration of 100 μL of unloaded LNP (0.1 mg/mL) formed from the ionizable lipid, cholesterol, DSPC, and DMG-PEG 2000 at a ratio of 50:38.5:10:1.5. The experimental animals were executed by removing the cervical vertebrae and dissected for the liver at 24 h and 72 h after administration, respectively, while the same batch of non-dosed experimental animal livers were used as a blank control group. Water was added to the liver sample for homogenization, and the protein was precipitated. The content of the ionizable lipid in the sample was quantitatively analyzed using LC-MS/MS in comparison to a calibration standard prepared from matched blank liver tissues.

| Structure (SMILES) | Cell viability (%) [1] [%] | Particle size (nm) [2] [nm] | Particle-size distribution (PDI) [2] | Total photon count in vivo at 6 hours after administration (Total Flux) [3] | Luciferase luminescence of cell lysate [4] [RLU] | Encapsulation efficiency (%) [5] [%] | Percentage of cationic lipids in the liver in the total dose, 24 h after administration (%) [6] [%] | Percentage of cationic lipids in the liver in the total dose, 72 h after administration (%) [6] [%] |
| --- | --- | --- | --- | --- | --- | --- | --- | --- |
| CCCCCCCCCOC(=O)CCCCCCCN(CCO)CCCCC(C)(C)CCC(=O)OC(CCCCCCCC)CCCCCCCC [20a] | 105.11 | 102.13 | 0.032 | 1.18E+11 | 6.55E+06 | 87.83 | – | – |
| CCCCCCCCCC(=O)OCC1(CCCCCN(CCO)CCCCCCCC(=O)OCC(CCCCCCC)CCCCCCC)CC1 [22b] | – | 99.44 | 0.050 | 8.78E+10 | – | 93.03 | 2 | <1 |
| CCCCC/C=C\C/C=C\CCCCCCCCC(CCCCCCCC/C=C\C/C=C\CCCCC)OC(=O)CCCN(C)C [MC3, DLin-MC3-DMA, reference compound] | 97.84 | 96.83 | 0.04 | 8.04E+09 | 2.95E+06 | 95.62 | – | – |
| CCCCCCCCCC(=O)OCC(C)(C)CCCCCN(CCO)CCCCCCCC(=O)OCCCCC(CCCC)CCCC [12b] | – | 104.60 | 0.031 | 1.19E+10 | – | 91.04 | <1 | 0 |
